Experimental findings from patent US20250179103A1, “6-OXODECAHYDROPYRROLO[1,2-A][1,5]DIAZOCINE AND 6-OXODECAHYDRO-4H-PYRROLO[2,1-D][1,5]THIAZOCINE DERIVATIVES AS STAT3 AND STAT6 MODULATORS FOR THE TREATMENT OF CANCER AND INFLAMMATORY CONDITIONS” (Recludix Pharma, Inc., priority 2022, published 2025) are described below.

Experiment [1] deals with T1, Recombinant STAT3 protein (STAT3(G127-I722)) (Homo sapiens, UniProt P40763).
T1 construct: Recombinant STAT3 protein (STAT3(G127-I722))
Nature of the experiment: STAT3 Fluorescence Polarization (FP) Assay. It counts as binding. As to conditions: STAT3(G127-I722) 25 nM, probe 5-FAM-GpYLPQTV-NH2 2 nM, 45-minute incubation. An outline of the steps:
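Fluorescence polarization after a 45-min room-temperature incubation measured compound displacement of a 2 nM fluorescein-labelled phosphotyrosine peptide (5-FAM-GpYLPQTV-NH2) from 25 nM recombinant STAT3(G127-I722). Buffer was 10 mM HEPES pH 7.4 with 1% DMSO final. IC50s were fitted by nonlinear regression of mP against log concentration.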
(Fluorescence polarisation rises when a labelled molecule tumbles more slowly, as on binding a larger partner.)

Experiment [2] has as its target T2, Recombinant STAT6 protein (STAT6(W123-T658)) (Homo sapiens, UniProt P42226).
T2 construct: Recombinant STAT6 protein (STAT6(W123-T658))
T2 sequence (P42226 123-658): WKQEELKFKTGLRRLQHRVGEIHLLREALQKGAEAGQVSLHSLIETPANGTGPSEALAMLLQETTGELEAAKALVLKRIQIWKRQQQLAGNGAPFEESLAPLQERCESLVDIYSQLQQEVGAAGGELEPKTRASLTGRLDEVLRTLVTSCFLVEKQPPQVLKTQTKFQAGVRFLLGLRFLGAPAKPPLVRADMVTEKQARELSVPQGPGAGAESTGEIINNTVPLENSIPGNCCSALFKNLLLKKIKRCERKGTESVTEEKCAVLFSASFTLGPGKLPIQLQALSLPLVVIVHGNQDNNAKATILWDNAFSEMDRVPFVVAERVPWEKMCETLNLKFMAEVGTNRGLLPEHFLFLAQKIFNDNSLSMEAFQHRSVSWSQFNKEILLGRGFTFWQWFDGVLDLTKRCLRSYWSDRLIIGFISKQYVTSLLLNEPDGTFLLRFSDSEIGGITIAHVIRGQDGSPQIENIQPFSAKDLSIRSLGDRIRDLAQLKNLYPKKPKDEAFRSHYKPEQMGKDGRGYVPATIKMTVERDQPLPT
Nature of the experiment: STAT6 Fluorescence Polarization (FP) Assay. It counts as binding. To be noted: STAT6(W123-T658) 250 nM, probe 5-FAM-ApYKPFQDLI-NH2 2 nM, 45-minute incubation. The method, boiled down: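 Displacement of a fluorescent phosphotyrosine peptide (5-FAM-ApYKPFQDLI-NH2, 2 nM) from STAT6(W123-T658) (250 nM), 1% DMSO, pH 7.4 HEPES buffer. After 45 min at room temperature, polarization (mP) was plotted versus log compound concentration and fitted by nonlinear regression to give IC50.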

Where only a bound is given, the exact number is not on record here.

By IC50 is commonly meant the concentration at which inhibition is half-maximal.

T1 sequence (P40763 127-722): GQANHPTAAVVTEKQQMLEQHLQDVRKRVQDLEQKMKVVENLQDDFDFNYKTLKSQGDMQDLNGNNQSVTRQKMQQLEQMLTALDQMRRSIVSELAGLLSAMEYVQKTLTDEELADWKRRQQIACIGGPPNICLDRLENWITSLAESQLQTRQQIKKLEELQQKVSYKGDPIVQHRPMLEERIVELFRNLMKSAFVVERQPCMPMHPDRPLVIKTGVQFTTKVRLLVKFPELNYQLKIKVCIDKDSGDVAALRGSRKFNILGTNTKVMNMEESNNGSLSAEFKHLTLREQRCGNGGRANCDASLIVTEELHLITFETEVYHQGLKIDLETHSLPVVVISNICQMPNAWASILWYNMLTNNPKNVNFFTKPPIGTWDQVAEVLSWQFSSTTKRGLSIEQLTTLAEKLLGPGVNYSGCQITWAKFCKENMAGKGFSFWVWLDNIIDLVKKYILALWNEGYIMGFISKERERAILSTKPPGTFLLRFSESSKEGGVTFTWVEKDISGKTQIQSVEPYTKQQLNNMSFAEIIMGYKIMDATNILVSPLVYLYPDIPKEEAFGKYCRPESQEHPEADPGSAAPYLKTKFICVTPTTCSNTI

As to `CC(=O)N1CC[C@H]2CC[C@@H](C(=O)Nc3ccc(-c4ccccc4)cc3)N2C(=O)[C@@H](NC(=O)c2cc3cc(C(F)(F)P(=O)(O)O)c(F)cc3s2)C1` [Compound 46, ((2-(((5S,8S,10aR)-8-([1,1′-biphenyl]-4-ylcarbamoyl)-3-acetyl-6-oxodecahydropyrrolo[1,2-a][1,5]diazocin-5-yl)carbamoyl)-6-fluorobenzo[b]thiophen-5-yl)difluoromethyl)phosphonic acid], the IC50 in experiment [1] is 1000 to 10000 nM; in experiment [2], 0.3 to 3 µM.
For `CC(=O)N1CC[C@H]2CC[C@@H](C(=O)N(C)c3ccc(C4(C)COC4)cc3)N2C(=O)[C@@H](NC(=O)c2cc3cc(C(F)(F)P(=O)(O)O)ccc3s2)C1` [Compound 47, ((2-(((5S,8S,10aR)-3-acetyl-8-(methyl(4-(3-methyloxetan-3-yl)phenyl)carbamoyl)-6-oxodecahydropyrrolo[1,2-a][1,5]diazocin-5-yl)carbamoyl)benzo[b]thiophen-5-yl)difluoromethyl)phosphonic acid], in that order: 1000 to 10000 nM and 0.3 to 3 µM.
For `CC(=O)N1CC[C@H]2CC[C@@H](C(=O)Nc3ccc(-c4ccccc4)cc3)N2C(=O)[C@@H](NC(=O)c2cc3c(F)c(C(F)(F)P(=O)(O)O)ccc3s2)C1` [Compound 48, ((2-(((5S,8S,10aR)-8-([1,1′-biphenyl]-4-ylcarbamoyl)-3-acetyl-6-oxodecahydropyrrolo[1,2-a][1,5]diazocin-5-yl)carbamoyl)-4-fluorobeno[b]thiophen-5-yl)difluoromethyl)phosphonic acid], in that order: 100 to 1000 nM and 0.3 to 3 µM.
For `CC(=O)N1CC[C@H]2CC[C@@H](C(=O)N(C)c3ccc4oncc4c3)N2C(=O)[C@@H](NC(=O)c2cc3cc(C(F)(F)P(=O)(O)O)ccc3s2)C1` [Compound 49, ((2-(((5S,8S,10aR)-3-acetyl-8-(benzo[d]isoxazol-5-yl(methyl)carbamoyl)-6-oxodecahydropyrrolo[1,2-a][1,5]diazocin-5-yl)carbamoyl)benzo[b]thiophen-5-yl)difluoromethyl)phosphonic acid], in that order: 1000 to 10000 nM and 3 to 30 µM.
As for `CC(=O)N1CC[C@H]2CC[C@@H](C(=O)N(C)c3ccccc3)N2C(=O)[C@@H](NC(=O)/C=C(\C)c2cccc(C(F)(F)P(=O)(O)O)c2)C1` [Compound 50, ((3-((E)-4-(((5S,8S,10aR)-3-acetyl-8-(methyl(phenyl)carbamoyl)-6-oxodecahydropyrrolo[1,2-a][1,5]diazocin-5-yl)amino)-4-oxobut-2-en-2-yl)phenyl)difluoromethyl)phosphonic acid], the IC50 in experiment [1] was over 10000 nM; in experiment [2], 3 to 30 µM.
With `CC(=O)N1CC[C@H]2CC[C@@H](C(=O)N(C)c3ccccc3)N2C(=O)[C@@H](NC(=O)/C=C/c2cccc(C(F)(F)P(=O)(O)O)c2)C1` [Compound 51, ((3-((E)-3-(((5S,8S,10aR)-3-acetyl-8-(methyl(phenyl)carbamoyl)-6-oxodecahydropyrrolo[1,2-a][1,5]diazocin-5-yl)amino)-3-oxoprop-1-en-1-yl)phenyl)difluoromethyl)phosphonic acid], the IC50 was over 10000 nM in experiment [1] and 3 to 30 µM in experiment [2].
Take `CC(=O)N1CC[C@H]2CC[C@@H](C(=O)N(C)c3ccc(-c4ccccc4)cc3)N2C(=O)[C@@H](NC(=O)c2cc3cc(C(F)(F)P(=O)(O)O)ccc3[nH]2)C1` [Compound 53, ((2-(((5S,8S,10aR)-8-([1,1′-biphenyl]-4-yl(methyl)carbamoyl)-3-acetyl-6-oxodecahydropyrrolo[1,2-a][1,5]diazocin-5-yl)carbamoyl)-1H-indol-5-yl)difluoromethyl)phosphonic acid]: the IC50 in experiment [1] fell in the range of 1000 to 10000 nM; in experiment [2], 0.3 to 3 µM.
Regarding `CC(=O)N1CC[C@H]2CC[C@@H](C(=O)N(C)Cc3ccccc3)N2C(=O)[C@@H](NC(=O)c2cc3cc(C(F)(F)P(=O)(O)O)ccc3[nH]2)C1` [Compound 54, ((2-(((5S,8S,10aR)-3-acetyl-8-(benzyl(methyl)carbamoyl)-6-oxodecahydropyrrolo[1,2-a][1,5]diazocin-5-yl)carbamoyl)-1H-indol-5-yl)difluoromethyl)phosphonic acid], the half-inhibitory concentration (IC50) in experiment [1] is 1000 to 10000 nM; in experiment [2], 0.3 to 3 µM.
For `CC(=O)N1CC[C@H]2CC[C@@H](C(=O)N(c3ccccc3)c3ccccc3)N2C(=O)[C@@H](NC(=O)c2cc3cc(C(F)(F)P(=O)(O)O)ccc3[nH]2)C1` [Compound 55, ((2-(((5S,8S,10aR)-3-acetyl-8-(diphenylcarbamoyl)-6-oxodecahydropyrrolo[1,2-a][1,5]diazocin-5-yl)carbamoyl)-1H-indol-5-yl)difluoromethyl)phosphonic acid], in that order: 1000 to 10000 nM and 0.3 to 3 µM.
Consider `CC(=O)N1CC[C@H]2CC[C@@H](C(=O)N(Cc3ccccc3)c3ccccc3)N2C(=O)[C@@H](NC(=O)c2cc3cc(C(F)(F)P(=O)(O)O)ccc3[nH]2)C1` [Compound 56, ((2-(((5S,8S,10aR)-3-acetyl-8-(benzyl(phenyl)carbamoyl)-6-oxodecahydropyrrolo[1,2-a][1,5]diazocin-5-yl)carbamoyl)-1H-indol-5-yl)difluoromethyl)phosphonic acid], for which the IC50 lay in the range of 1000 to 10000 nM in experiment [1] and 0.3 to 3 µM in experiment [2].
For `CC(=O)N1CC[C@H]2CC[C@@H](C(=O)N3CCCc4ccccc43)N2C(=O)[C@@H](NC(=O)c2cc3cc(C(F)(F)P(=O)(O)O)ccc3[nH]2)C1` [Compound 57, ((2-(((5S,8S,10aR)-3-acetyl-6-oxo-8-(1,2,3,4-tetrahydroquinoline-1-carbonyl)decahydropyrrolo[1,2-a][1,5]diazocin-5-yl)carbamoyl)-1H-indol-5-yl)difluoromethyl)phosphonic acid], in that order: 1000 to 10000 nM and 0.3 to 3 µM.
As to `CC(=O)N1CC[C@H]2CC[C@@H](C(=O)Nc3ccc(-c4ccccc4)cc3)N2C(=O)[C@@H](NC(=O)c2cc3cc(C(F)(F)P(=O)(O)O)ccc3[nH]2)C1` [Compound 58, ((2-(((5S,8S,10aR)-8-([1,1′-biphenyl]-4-ylcarbamoyl)-3-acetyl-6-oxodecahydropyrrolo[1,2-a][1,5]diazocin-5-yl)carbamoyl)-1H-indol-5-yl)difluoromethyl)phosphonic acid], the figures for the IC50 in experiment [1] and in experiment [2] were 100 to 1000 nM and 0.3 to 3 µM, respectively.
For `CC(=O)N1CC[C@H]2CC[C@@H](C(=O)N3CC(C#N)C4(C3)C(=O)Nc3ccccc34)N2C(=O)[C@@H](NC(=O)c2cc3cc(C(F)(F)P(=O)(O)O)ccc3s2)C1` (stereo partly drawn) [Compound 61, ((2-(((5S,8S,10aR)-3-acetyl-8-(4′-cyano-2-oxospiro[indoline-3,3′-pyrrolidine]-1′-carbonyl)-6-oxodecahydropyrrolo[1,2-a][1,5]diazocin-5-yl)carbamoyl)benzo[b]thiophen-5-yl)difluoromethyl)phosphonic acid], in that order: 100 to 1000 nM and 0.3 to 3 µM.
For `CC(=O)N1CC[C@H]2CC[C@@H](C(=O)N3CCN(Cc4ccccc4)C(C#N)C3)N2C(=O)[C@@H](NC(=O)c2cc3cc(C(F)(F)P(=O)(O)O)ccc3s2)C1` (stereo partly drawn) [Compound 62, ((2-(((5S,8S,10aR)-3-acetyl-8-(4-benzyl-3-cyanopiperazine-1-carbonyl)-6-oxodecahydropyrrolo[1,2-a][1,5]diazocin-5-yl)carbamoyl)benzo[b]thiophen-5-yl)difluoromethyl)phosphonic acid], in that order: 1000 to 10000 nM and 0.3 to 3 µM.
